From US10479780B2, “Aminopyrazole derivatives” (Chugai Seiyaku Kabushiki Kaisha, priority 2015, dated 2019)

Legend:
Format in all cases: biochemical
human Yes1 enzyme = molecular target: T1, human Yes1 enzyme (Homo sapiens, UniProt P07947); experiment: Yes1 enzyme inhibitory activity (time-resolved fluorometry, biotinylated peptide phosphorylation); settings: biotinylated peptide phosphorylation, read-out: YES_IC50
T1 construct: made in house
Description: (§1) 1. Yes1 Enzyme Inhibitory Activity Yes1 inhibitory activity was determined based on activity of inhibiting phosphorylation reaction of a biotinylated peptide (EGPWLEEEEEAYGWMDF) using a human Yes1 enzyme prepared using a baculovirus expression system. The phosphorylated biotinylated peptide was detected by time-resolved fluorometry using an anti-phosphorylated tyrosine antibody conjugated to europium cryptate, and streptavidin conjugated to XL665, an allophycocyanin derivative. The 50% inhibitory concentration (IC50) was calculated from the inhibition rate relative to the control group without containing the test substance.

human Src enzyme = molecular target: T2, human Src enzyme (Homo sapiens, UniProt P12931); experiment: Src enzyme inhibitory activity (time-resolved fluorometry, biotinylated peptide phosphorylation); settings: biotinylated peptide phosphorylation, read-out: SRC_IC50
T2 construct: purchased Carna Biosciences, Inc. 08-173
T2 sequence (P12931 whole entry): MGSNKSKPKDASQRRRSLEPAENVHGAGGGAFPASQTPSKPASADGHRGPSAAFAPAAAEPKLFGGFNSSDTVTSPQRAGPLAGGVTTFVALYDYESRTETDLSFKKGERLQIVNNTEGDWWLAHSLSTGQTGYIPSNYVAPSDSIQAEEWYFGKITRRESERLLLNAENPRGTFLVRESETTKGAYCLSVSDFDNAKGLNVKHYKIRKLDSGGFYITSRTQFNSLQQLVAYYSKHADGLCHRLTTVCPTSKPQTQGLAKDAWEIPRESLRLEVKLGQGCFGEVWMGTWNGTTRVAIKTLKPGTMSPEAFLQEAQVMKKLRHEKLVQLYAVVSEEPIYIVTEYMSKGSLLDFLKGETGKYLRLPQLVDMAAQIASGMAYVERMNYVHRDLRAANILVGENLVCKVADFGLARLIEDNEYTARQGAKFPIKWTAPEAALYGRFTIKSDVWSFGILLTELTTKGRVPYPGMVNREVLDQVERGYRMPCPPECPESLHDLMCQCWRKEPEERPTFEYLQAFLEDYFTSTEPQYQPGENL
Description: as §1, with “2. Src” for “1. Yes1”, “Src” for “Yes1”, “(manufactured by Carna Biosciences, Inc., cat 08-173).” for “prepared using a baculovirus expression system.”

human Lck enzyme = molecular target: T3, human Lck enzyme (Homo sapiens, UniProt P06239); experiment: Lck enzyme inhibitory activity (time-resolved fluorometry, biotinylated peptide phosphorylation); settings: biotinylated peptide phosphorylation, read-out: LCK_IC50
T3 construct: purchased Carna Biosciences, Inc. 08-170
T3 sequence (P06239 whole entry): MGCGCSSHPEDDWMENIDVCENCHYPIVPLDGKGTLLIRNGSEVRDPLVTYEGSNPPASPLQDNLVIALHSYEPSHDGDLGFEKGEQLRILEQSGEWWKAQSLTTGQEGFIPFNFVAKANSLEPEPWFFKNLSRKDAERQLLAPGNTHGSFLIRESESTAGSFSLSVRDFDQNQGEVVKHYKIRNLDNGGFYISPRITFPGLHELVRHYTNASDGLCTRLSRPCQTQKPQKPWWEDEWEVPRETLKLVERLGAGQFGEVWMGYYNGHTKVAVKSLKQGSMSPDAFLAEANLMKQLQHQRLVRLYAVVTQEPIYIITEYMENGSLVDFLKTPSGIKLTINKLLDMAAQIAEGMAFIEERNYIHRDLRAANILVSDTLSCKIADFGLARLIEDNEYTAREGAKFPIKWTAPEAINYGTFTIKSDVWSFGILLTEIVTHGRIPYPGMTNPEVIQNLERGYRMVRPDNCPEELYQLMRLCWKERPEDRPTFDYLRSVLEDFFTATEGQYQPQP
Description: as §1, with “3. Lck” for “1. Yes1”, “Lck” for “Yes1”, “(manufactured by Carna Biosciences, Inc., cat 08-170).” for “prepared using a baculovirus expression system.”

T1 sequence (P07947 whole entry): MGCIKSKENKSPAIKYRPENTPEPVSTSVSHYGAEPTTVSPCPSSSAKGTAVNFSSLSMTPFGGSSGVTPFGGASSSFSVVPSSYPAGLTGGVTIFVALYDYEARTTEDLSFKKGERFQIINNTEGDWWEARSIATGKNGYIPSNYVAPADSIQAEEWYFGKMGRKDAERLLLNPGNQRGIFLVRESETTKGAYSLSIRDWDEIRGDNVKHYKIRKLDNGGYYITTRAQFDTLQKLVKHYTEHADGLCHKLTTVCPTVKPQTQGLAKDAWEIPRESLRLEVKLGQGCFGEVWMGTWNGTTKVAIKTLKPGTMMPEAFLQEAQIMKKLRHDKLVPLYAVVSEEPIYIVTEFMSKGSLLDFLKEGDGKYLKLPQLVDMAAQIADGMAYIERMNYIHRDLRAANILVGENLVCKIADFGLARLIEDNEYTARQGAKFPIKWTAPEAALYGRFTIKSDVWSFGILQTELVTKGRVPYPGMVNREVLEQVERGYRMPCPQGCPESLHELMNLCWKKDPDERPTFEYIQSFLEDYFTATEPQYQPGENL

IC50 (human Yes1 enzyme)	IC50 (human Src enzyme)	IC50 (human Lck enzyme)	SMILES
0.52 nM	21 nM	3.4 nM	COc1cc2cc(C(=O)c3cnn(-c4ccc(Oc5ccccc5F)cc4C)c3N)[nH]c2cc1NS(C)(=O)=O [Example 4-1-004, N-[2-[5-Amino-1-[4-(2-fluorophenoxy)-2-methylphenyl]pyrazole-4-carbonyl]-5-methoxy-1H-indol-6-yl]methanesulfonamide]
1 nM	63 nM	7.8 nM	COc1cc2cc(C(=O)c3cnn(-c4ccc(Oc5cccc(F)c5F)cc4C)c3N)[nH]c2cc1NS(C)(=O)=O [Example 4-1-005, N-[2-[5-amino-1-[4-(2,3-difluorophenoxy)-2-methylphenyl]pyrazole-4-carbonyl]-5-methoxy-1H-indol-6-yl]methanesulfonamide]
1.8 nM	74 nM	11 nM	COc1cc2cc(C(=O)c3cnn(-c4c(C)cc(Oc5ccccc5F)cc4F)c3N)[nH]c2cc1NS(C)(=O)=O [Example 4-1-006, N-[2-[5-amino-1-[2-fluoro-4-(2-fluorophenoxy)-6-methylphenyl]pyrazole-4-carbonyl]-5-methoxy-1H-indol-6-yl]methanesulfonamide]
1.1 nM	61 nM	7.5 nM	COc1cc2cc(C(=O)c3cnn(-c4c(C)cc(Oc5ccccc5)cc4F)c3N)[nH]c2cc1NS(C)(=O)=O [Example 4-1-007, N-[2-[5-amino-1-(2-fluoro-6-methyl-4-phenoxyphenyl)pyrazole-4-carbonyl]-5-methoxy-1H-indol-6-yl]methanesulfonamide]
0.69 nM	52 nM	4 nM	COc1cc2cc(C(=O)c3cnn(-c4cnc(Oc5ccccc5F)cc4C)c3N)[nH]c2cc1NS(C)(=O)=O [Example 4-1-008, N-[2-[5-amino-1-[6-(2-fluorophenoxy)-4-methylpyridin-3-yl]pyrazole-4-carbonyl]-5-methoxy-1H-indol-6-yl]methanesulfonamide]
1.1 nM	59 nM	4.5 nM	COc1cc2cc(C(=O)c3cnn(-c4cnc(Oc5c(F)cccc5F)cc4C)c3N)[nH]c2cc1NS(C)(=O)=O [Example 4-1-009, N-[2-[5-amino-1-[6-(2,6-difluorophenoxy)-4-methylpyridin-3-yl]pyrazole-4-carbonyl]-5-methoxy-1H-indol-6-yl]methanesulfonamide]
1.1 nM	46 nM	25 nM	COc1cc2cc(C(=O)c3cnn(-c4cnc(Oc5ccccc5Cl)cc4C)c3N)[nH]c2cc1NS(C)(=O)=O [Example 4-1-010, N-[2-[5-amino-1-[6-(2-chlorophenoxy)-4-methylpyridin-3-yl]pyrazole-4-carbonyl]-5-methoxy-1H-indol-6-yl]methanesulfonamide]
5.5 nM	170 nM	41 nM	COc1cc2cc(C(=O)c3cnn(-c4cnc(Oc5cccc(Cl)c5)cc4C)c3N)[nH]c2cc1NS(C)(=O)=O [Example 4-1-011, N-[2-[5-amino-1-[6-(3-chlorophenoxy)-4-methylpyridin-3-yl]pyrazole-4-carbonyl]-5-methoxy-1H-indol-6-yl]methanesulfonamide]
34 nM	90 nM	39 nM	Cc1cc(Oc2c(F)cccc2F)ncc1-n1ncc(C(=O)c2cc3cc(OC(F)F)c(C4CCN(C(=O)OC(C)(C)C)CC4)cc3[nH]2)c1N [Example 4-1-012, tert-butyl 4-[2-[5-amino-1-[6-(2,6-difluorophenoxy)-4-methylpyridin-3-yl]pyrazole-4-carbonyl]-5-(difluoromethoxy)-1H-indol-6-yl]piperidine-1-carboxylate]
0.45 nM	2.6 nM	1.3 nM	COc1cc2[nH]c(C(=O)c3cnn(-c4ccc(Oc5ccccc5F)cc4C)c3N)cc2cc1NS(C)(=O)=O [Example 4-1-013, N-[2-[5-amino-1-[4-(2-fluorophenoxy)-2-methylphenyl]pyrazole-4-carbonyl]-6-methoxy-1H-indol-5-yl]methanesulfonamide]
0.36 nM	5.8 nM	1.4 nM	COc1cc2[nH]c(C(=O)c3cnn(-c4cnc(Oc5ccccc5F)cc4C)c3N)cc2cc1NS(C)(=O)=O [Example 4-1-014, N-[2-[5-amino-1-[6-(2-fluorophenoxy)-4-methylpyridin-3-yl]pyrazole-4-carbonyl]-6-methoxy-1H-indol-5-yl]methanesulfonamide]
1 nM	14 nM	10 nM	Cc1cc(Oc2ccccc2F)ccc1-n1ncc(C(=O)c2cc3cc(OCC(F)F)c(N4CCOCC4)cc3[nH]2)c1N [Example 4-1-015, [5-amino-1-[4-(2-fluorophenoxy)-2-methylphenyl]pyrazol-4-yl]-[5-(2,2-difluoroethoxy)-6-morpholin-4-yl-1H-indol-2-yl]methanone]
2.1 nM	14 nM	7.5 nM	Cc1cc(Oc2c(F)cccc2F)ncc1-n1ncc(C(=O)c2cc3cc(OCC(F)F)c(N4CCOCC4)cc3[nH]2)c1N [Example 4-1-016, [5-amino-1-[6-(2,6-difluorophenoxy)-4-methylpyridin-3-yl]pyrazol-4-yl]-[5-(2,2-difluoroethoxy)-6-morpholin-4-yl-1H-indol-2-yl]methanone]
3.1 nM	100 nM	4.9 nM	Cc1cc2cc(C(=O)c3cnn(-c4cnc(Oc5c(F)cccc5F)cc4C)c3N)[nH]c2cc1NS(=O)(=O)C1CC1 [Example 4-1-017, N-[2-[5-amino-1-[6-(2,6-difluorophenoxy)-4-methylpyridin-3-yl]pyrazole-4-carbonyl]-5-methyl-1H-indol-6-yl]cyclopropanesulfonamide]
1 nM	4.1 nM	3.1 nM	Cc1cc(Oc2ccccc2F)ccc1-n1ncc(C(=O)c2cc3cc(C4CCN(C(C)C)CC4)c(F)cc3[nH]2)c1N [Example 4-2-001, [5-amino-1-[4-(2-fluorophenoxy)-2-methylphenyl]pyrazol-4-yl]-[6-fluoro-5-(1-propan-2-ylpiperidin-4-yl)-1H-indol-2-yl]methanone]
0.89 nM	3.5 nM	3.7 nM	Cc1cc(Oc2cccc(F)c2F)ccc1-n1ncc(C(=O)c2cc3cc(C4CCN(C(C)C)CC4)c(F)cc3[nH]2)c1N [Example 4-2-002, [5-amino-1-[4-(2,3-difluorophenoxy)-2-methylphenyl]pyrazol-4-yl]-[6-fluoro-5-(1-propan-2-ylpiperidin-4-yl)-1H-indol-2-yl]methanone]
1.4 nM	6.4 nM	2.1 nM	Cc1cc(Oc2cccc(Cl)c2)ccc1-n1ncc(C(=O)c2cc3cc(C4CCN(C(C)C)CC4)c(F)cc3[nH]2)c1N [Example 4-2-003, [5-amino-1-[4-(3-chlorophenoxy)-2-methylphenyl]pyrazol-4-yl]-[6-fluoro-5-(1-propan-2-ylpiperidin-4-yl)-1H-indol-2-yl]methanone]
0.93 nM	7.5 nM	2.3 nM	CC(C)N1CCC(c2cc3cc(C(=O)c4cnn(-c5ccc(Oc6cccc(F)c6F)cc5)c4N)[nH]c3cc2F)CC1 [Example 4-2-004, [5-amino-1-[4-(2,3-difluorophenoxy)phenyl]pyrazol-4-yl]-[6-fluoro-5-(1-propan-2-ylpiperidin-4-yl)-1H-indol-2-yl]methanone]
1.5 nM	20 nM	5 nM	CC(C)N1CCC(c2cc3cc(C(=O)c4cnn(-c5ccc(Oc6cccc(Cl)c6)cc5)c4N)[nH]c3cc2F)CC1 [Example 4-2-005, [5-amino-1-[4-(3-chlorophenoxy)phenyl]pyrazol-4-yl]-[6-fluoro-5-(1-propan-2-ylpiperidin-4-yl)-1H-indol-2-yl]methanone]
1.3 nM	12 nM	3.3 nM	CC(C)N1CCC(c2cc3cc(C(=O)c4cnn(-c5ccc(Oc6cccc(F)c6)cc5)c4N)[nH]c3cc2F)CC1 [Example 4-2-006, [5-amino-1-[4-(3-fluorophenoxy)phenyl]pyrazol-4-yl]-[6-fluoro-5-(1-propan-2-ylpiperidin-4-yl)-1H-indol-2-yl]methanone]
0.91 nM	45 nM	3.6 nM	CC(C)N1CCC(c2cc3cc(C(=O)c4cnn(-c5ccc(Oc6cccc(F)c6F)cc5F)c4N)[nH]c3cc2F)CC1 [Example 4-2-007, [5-amino-1-[4-(2,3-difluorophenoxy)-2-fluorophenyl]pyrazol-4-yl]-[6-fluoro-5-(1-propan-2-ylpiperidin-4-yl)-1H-indol-2-yl]methanone]
1.1 nM	5.4 nM	2.5 nM	CC(C)N1CCC(c2cc3cc(C(=O)c4cnn(-c5ccc(Oc6ccccc6Cl)cc5F)c4N)[nH]c3cc2F)CC1 [Example 4-2-008, [5-amino-1-[4-(2-chlorophenoxy)-2-fluorophenyl]pyrazol-4-yl]-[6-fluoro-5-(1-propan-2-ylpiperidin-4-yl)-1H-indol-2-yl]methanone]
